The values that follow come from patent US20110009628A1, “Compounds and Compositions for Modulating Lipid Levels and Methods of Preparing Same” (priority 2009, published 2011).

For data set [1], the system named is LDLR ligand uptake activity in HepG2 cells. The data set can be described thus: DiI-LDL uptake in HepG2 cells (Example 6). Also: key: +: slightly increased fluorescent intensity over control; ++: modestly increased fluorescent intensity over control; +++: strongly increased fluorescent intensity over control. Type of data set: cell-based, human. To be noted: 20 hours. The method, then:
HepG2 cells (2×10^5 cells/well) in 24-well culture plates were treated with various compounds at indicated concentrations for 20 hours. The fluorescent 1.1′-dioctadecyl-3,3,3′,3′-tetramethylindocarbocyanin perchlorate (DiI-LDL) (Biomedical Technologies, Stoughton, Mass.) at a concentration of 2 μg/mL was added to cells at the end of treatment. After 4 hours, the medium was removed, cells were washed with cold PBS, and were examined immediately under a fluorescent microscope (Nikon) at 200× amplification. The fluorescent intensity in compound-treated cells was compared to that in untreated control cells. […] In these experiments berberine chloride was used for comparison.

For data set [2], the system named is LDLR mRNA expression in HepG2 cells. The data set can be described thus: LDLR mRNA expression in HepG2 cells, quantitative real-time RT-PCR (Example 7). The format is cell-based, human. To be noted: dose less than or equal to 10 μM, 24 hours. The method, then: In yet another experiment, HepG2 cells were treated with various compounds for 24 hours at the indicated doses. Total RNA was isolated and 2 μg was used to generate cDNA in a reaction containing random primers and M-MLV at 37° C. for 1 hour in a volume of 25 μL. Real-time PCR was performed on the cDNA using MCEP REALPLEX 2 SYSTEM (Eppendorf) and Universal MasterMix (Applied Biosystems). Human LDLR and GAPDH Pre-Developed TaqMan Assay Reagents (Applied Biosystems) were used to assess the levels of mRNA expressions in HepG2. The levels of LDLR mRNA were normalized to that of GAPDH. Each RNA samples was assayed in triplicate. The abundance of LDLR mRNA in untreated cells was defined as 1, and the amounts of LDLR mRNA from compound-treated cells were plotted relative to that value in FIG. 2B. The data shown are mean±s.d.
Activities of some compounds of Formulas I, II and EE on LDLR mRNA expression were determined. HepG2 cells were treated with new compounds individually at a dose less than or equal to 10 μM for 24 hours. […] In these experiments, berberine chloride was included for comparison.
For orientation: In qPCR the cycle at which signal appears reflects the starting amount.

For data set [3], the system named is intracellular triglyceride in HepG2 cells. In words: Reduction of intracellular triglyceride in HepG2 cells (Example 8). Type of data set: cell-based, human. To be noted: B, compound dose ≦40 μM. From the text:
Berberine chloride was used for comparison. The amount of TG in untreated control cells was defined as 100% and the amounts of TG in compound-treated cells were divided to that value.

A short description of data set [4]: Pharmacokinetics of Compound 141 in male Wistar rats, intravenous and oral. Type of data set: in vivo. The following applies: for MRT last: read-out: MRT(0-t); for MRT inf: read-out: MRT(0-∞). On the procedure: For intravenous administration, blood samples were collected via retro-orbital puncture into heparinized tubes at pre-dose and 0.083, 0.25, 0.5, 1, 2, 6, 8, and 24 hours (hr) post-dose.
For oral administration, blood samples were collected at following time points: 0, 0.167, 0.417, 0.75, 1, 2, 4, 6, 8, and 24 hr. After sample collection, plasma samples were stored at −20° C. until bioanalysis. Concentrations of 72(+) and 72(−) in plasma samples were determined using a high performance liquid chromatography/mass spectrometry (HPLC/MS/MS) method.
*F(%)=(Doseiv×AUCoral(0-t))/(Doseoral×AUCiv(0-t))×100%. […]
The pharmacokinetic profile and bioavailability of Compound 141 (phosphate salt of Compound 127) in male Wistar rats following single intravenous (iv) and oral administration (p.o.) were measured according to the procedures of Example 4 and are summarized in Table 11. The pharmacokinetic profile of Compound 162 in male Golden Syrian masters following oral administration (pox) is summarized in Table 12.

Setting [5] is: Wistar, rat, plasma, male rats, IV (2 mg/kg), mean.
[6] abbreviates: Wistar, rat, plasma, male rats, PO (10 mg/kg), mean.

Where a name gives a salt, the structure may show the parent alone. Read-outs that look alike come from different tables or passages of the source.

`COc1ccc2c(c1OC)C(CC(C)=O)N1CCc3cc4c(cc3C1=C2)OCO4` (stereo not drawn) [Compound 30, 1-(9,10-dimethoxy-5,6,7,8-tetrahydro-2H-1,3-dioxolano[4,5-g]isoquinolino[3,2-a]isoquinolin-8-yl)acetone]: the “Activity on DiI-LDL uptake” value in data set [1] (A, compound dose ≦10 μM) was “+”. Besides, the “Activity on LDLR mRNA expression (Fold of control)” value (“Activity … (Fold of control)” below) in data set [2] is 1.47 ± 0.13 Fold of control.
The corresponding values for `COc1ccc2c(c1OCc1ccccc1[N+](=O)[O-])CN1CCc3cc4c(cc3C1C2)OCO4` (stereo not drawn) [Compound 26, 10-methoxy-9-[(2-nitrophenyl)methoxy]-5,6,7,8,13,13a-hexahydro-2H-1,3-dioxolano[4,5-g]isoquinolino[3,2-a]isoquinoline] are “++” and 1.29 ± 0.10 Fold of control.
As to `COc1ccc2cc3[n+](cc2c1OC)CCc1cc2c(cc1-3)OCO2` [Berberine, reference compound], the “Activity on DiI-LDL uptake” value in data set [1] (B, compound dose ≦40 μM) is reported as “+”. In addition, the “Activity … (Fold of control)” value in data set [2] is given as 1.30 ± 0.11 Fold of control. For the same compound, the “Activity on reduction of cellular TG accumulation (% of control)” value (from here on “Activity on reduction … (% of control)”) in data set [3] is listed as 70.9 ± 5.4 % of control.
Take `COc1ccc2c(c1OC)CN1CCc3cc4c(cc3C1C2Cc1ccccc1)OCO4` (stereo not drawn) [Compound 1, 9,10-dimethoxy-13-benzyl-5,6,7,8,13,13a-hexahydro-2H-1,3-dioxolano[4,5-g]isoquinolino[3,2-a]isoquinoline]: in data set [1] (A, compound dose ≦10 μM), the “Activity on DiI-LDL uptake” value is “+”. Further, the “Activity … (Fold of control)” value in data set [2] is recorded as 1.56 ± 0.86 Fold of control.
With `COc1ccc2c(c1O)CN1CCc3cc4c(cc3C1C2)OCO4` (stereo not drawn) [Compound 34, 10-methoxy-5,6,7,8,13,13a-hexahydro-2H-1,3-dioxolano[4,5-g]isoquinolino[3,2-a]isoquinoline-9-ol], the “Activity on DiI-LDL uptake” value in data set [1] (A, compound dose ≦10 μM) is “++”. In addition, in data set [2], the “Activity … (Fold of control)” value is on record as 1.76 ± 0.17 Fold of control.
For the compound `COc1ccc2c(c1OCCO)CN1CCc3cc4c(cc3C1C2)OCO4` (stereo not drawn) [Compound 82, 9-O-2-(1′-hydroxy-ethyl)-10-methoxy-5,8,13,13a-tetrahydro-6H-[1,3]dioxolo[4,5-g]isoquino[3,2-a]isoquinoline], in data set [3], the “Activity on reduction … (% of control)” value was 53.2 ± 21.3 % of control.
Regarding `COc1ccc2c(c1OS(=O)(=O)c1cccs1)CN1CCc3cc4c(cc3C1C2)OCO4` (stereo not drawn) [Compound 56, 10-methoxy-5,6,7,8,13,13a-hexahydro-2H-1,3-dioxolano[4,5-g]isoquinolino[3,2-a]isoquinolin-9-yl thiophene-2-sulfonate], the “Activity on DiI-LDL uptake” value in data set [1] (A, compound dose ≦10 μM) is on record as “+++”. Besides, the “Activity … (Fold of control)” value in data set [2] was 3.18 ± 0.63 Fold of control.
The like results for `COc1ccc2c(c1OC(=O)Nc1ccc(OC(F)(F)F)cc1)CN1CCc3cc4c(cc3C1C2)OCO4` (stereo not drawn) [Compound 44, (10-methoxy(5,6,7,8,13,13a-hexahydro-2H-1,3-dioxolano[4,5-g]isoquinolino[3,2-a]isoquinolin-9-yloxy))-N-[4-(trifluoromethoxy)phenyl] carboxamide] were, in that order, “++” and 2.20 ± 0.06 Fold of control.
The corresponding values for `COc1ccc2c(c1OS(=O)(=O)c1ccccc1C)CN1CCc3cc4c(cc3C1C2)OCO4` (stereo not drawn) [Compound 50, 10-methoxy-5,6,7,8,13,13a-hexahydro-2H-1,3-dioxolano[4,5-g]isoquinolino[3,2-a]isoquinolin-9-yl 2-methylbenzenesulfonate] are “+++” and 4.74 ± 0.96 Fold of control.
With `COc1cc2c(cc1OC)C1Cc3cccc(OC)c3CN1CC2` (stereo not drawn) [Compound 22, 2,3,9-trimethoxy-5,6,7,8,13,13a-hexahydroisoquinolino[3,2-a]isoquinoline], the “Activity on reduction … (% of control)” value in data set [3] was 53.35 ± 12.68 % of control.
On to `COc1ccc2c(c1OC(=O)NC(C)C)CN1CCc3cc4c(cc3C1C2)OCO4` (stereo not drawn) [Compound 41, (10-methoxy(5,6,7,8,13,13a-hexahydro-2H-1,3-dioxolano[4,5-g]isoquinolino[3,2-a]isoquinolin-9-yloxy))-N-(methylethyl)carboxamide], for which, in data set [1] (A, compound dose ≦10 μM), the “Activity on DiI-LDL uptake” value was “++”. Also, in data set [2], the “Activity … (Fold of control)” value is listed as 1.60 ± 0.03 Fold of control.
The term AUC(0-inf) denotes total exposure, with the tail of the curve extrapolated. As a reminder, the AUC(0-t) is the area under the concentration-time curve up to a stated or last time point. The low end stands for low exposure, the high end for high exposure. Broadly, the Cmax is the highest concentration seen after dosing. The term Tmax denotes the time from dosing to the highest level. For `COc1cc2c(cc1OC)C1Cc3ccc(OC)c(OS(=O)(=O)c4cccc(F)c4)c3CN1CC2` (racemic) [Compound 141, 2,3,10-Trimethoxy-5,6,7,8,13,13a-hexahydroisoquinolino[2,1-b]isoquinolin-9-yl 3-fluorobenzenesulfonate phosphate Salt], in data set [4] (setting [5]), the AUC(0-inf) is 1080 ng·h/mL, the AUC(0-t) is 1070 ng·h/mL, the highest level (Cmax) was 1550 ng/mL and the Tmax stood at 0.083 h. For the same compound, in data set [4] (setting [5]), the MRT last is 1.46 h and the MRT inf was 1.62 h. Moreover, in data set [4] (Wistar, rat, plasma, male rats, IV (2 mg/kg), mean, read-out: Vz), the Vd is 8.31 L/kg. Further, in data set [4] (setting [6]), the total exposure AUC(0-inf) was determined as 3380 ng·h/mL, the AUC(0-t) is 3360 ng·h/mL, the Cmax was 826 ng/mL and the Tmax was 0.33 h. Also, in data set [4] (setting [6]), the MRT last turned out to be 4.25 h and the MRT inf came to 4.44 h. Also, the “pharmacokinetic properties and bioavailability, in words” value in data set [4] (male Wistar rats, iv and p.o.) was “excellent pharmacokinetic properties and good bioavailability”. In data set [4] (male rats, IV (2 mg/kg), mean), this compound returned a CLz of 31.2 mL/min/kg and a t1/2z of 3.16 h. Further, the “F*” value in data set [4] (male rats, PO (10 mg/kg) vs IV (2 mg/kg), mean) was found to be 62.75%. Besides, the t1/2z in data set [4] (male rats, PO (10 mg/kg), mean) worked out at 3.62 h.
Turning to `COc1ccc2c(c1OC(=O)Nc1cccc(C)c1)CN1CCc3cc4c(cc3C1C2)OCO4` (stereo not drawn) [Compound 46, (10-methoxy(5,6,7,8,13,13a-hexahydro-2H-1,3-dioxolano[4,5-g]isoquinolino[3,2-a]isoquinolin-9-yloxy))-N-(3-methylphenyl)carboxamide], in data set [1] (A, compound dose ≦10 μM), the “Activity on DiI-LDL uptake” value is “++”. Further, the “Activity … (Fold of control)” value in data set [2] is 1.80 ± 0.16 Fold of control.
On to `CCOC(=O)COc1c(OC)ccc2c1CN1CCc3cc4c(cc3C1C2)OCO4` (stereo not drawn) [Compound 83, 2-[10-methoxy-5,8,13,13a-tetrahydro-6H-[1,3]dioxolo[4,5-g]isoquino[3,2-a]isoquinoline-9-yl]-acetic esate], for which, in data set [3], the “Activity on reduction … (% of control)” value is listed as 63.0 ± 0.90 % of control.
Consider `COc1cc(NC(=O)Oc2c(OC)ccc3c2CN2CCc4cc5c(cc4C2C3)OCO5)cc(OC)c1` (stereo not drawn) [Compound 45, N-(3,5-dimethoxyphenyl)(10-methoxy(5,6,7,8,13,13a-hexahydro-2H-1,3-dioxolano[4,5-g]isoquinolino[3,2-a]isoquinolin-9-yloxy))carboxamide], for which the “Activity on DiI-LDL uptake” value in data set [1] (A, compound dose ≦10 μM) is “++”. Also, the “Activity … (Fold of control)” value in data set [2] is 2.09 ± 0.11 Fold of control.
The like results for `COc1ccc2c(c1OS(=O)(=O)c1ccc(C(C)(C)C)cc1)CN1CCc3cc4c(cc3C1C2)OCO4` (stereo not drawn) [Compound 38, 10-methoxy-5,6,7,8,13,13a-hexahydro-2H-1,3-dioxolano[4,5-g]isoquinolino[3,2-a]isoquinolin-9-yl 4-(tert-butyl)benzenesulfonate] were, in that order, “++” and 1.82 ± 0.10 Fold of control.
Turning to `COc1ccc2c(c1OC(=O)N(C)C)CN1CCc3cc4c(cc3C1C2)OCO4` (stereo not drawn) [Compound 43, (10-methoxy(5,6,7,8,13,13a-hexahydro-2H-1,3-dioxolano[4,5-g]isoquinolino[3,2-a]isoquinolin-9-yloxy))-N,N-dimethylcarboxamide], the “Activity on DiI-LDL uptake” value in data set [1] (A, compound dose ≦10 μM) is listed as “++”. Moreover, in data set [2], the “Activity … (Fold of control)” value is listed as 1.95 ± 0.18 Fold of control.
